Results on eight molecules are retold here after PubChem BioAssay (NCI).

Test systems include A549 NSCLC; ACHN renal; BT-549 breast; CAKI-1 renal; COLO 205 colon; EKVX NSCLC; HL-60(TB) leukemia; HT29 colon; KM12 colon; LOX IMVI melanoma; MALME-3M melanoma; MDA-N; OVCAR-5 ovarian; PC-3 prostate; SF-539 CNS; SK-OV-3 ovarian; SNB-19 CNS; SR leukemia.
What all share (assay): inhibition of tumour cell growth, NCI panel, 48 h

The structures appear in SMILES notation.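 Five concentrations, 48 hours, 96-well plates. Definition used: TGI = concentration required for complete inhibition of growth.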 Some results are limits rather than exact numbers.

Turning to `COc1ccc(C2=NN(C(=O)c3cccnc3)C(O)(c3cc(F)c(Cl)cc3Cl)C2)cc1OC` (stereo unspecified), the TGI in the test on A549 NSCLC was greater than 100 µM; in the test with ACHN renal it was 57.9 µM; with BT-549 breast it was 41.5 µM; with CAKI-1 renal, greater than 100 µM; in the test with COLO 205 colon, 27.8 µM; in the test with EKVX NSCLC, 73.6 µM. In addition, the TGI is 40.9 µM in the test on HL-60(TB) leukemia; 34.9 µM in the test with HT29 colon; greater than 100 µM with KM12 colon; 27.2 µM with LOX IMVI melanoma; 59.1 µM in the test with MALME-3M melanoma; 90 µM in the test on MDA-N. The TGI with OVCAR-5 ovarian was greater than 100 µM; in the test on PC-3 prostate, 43.3 µM; in the test with SF-539 CNS, 33.5 µM; in the test on SK-OV-3 ovarian, 86.7 µM; in the test on SNB-19 CNS, greater than 100 µM; in the test with SR leukemia, 53.7 µM.

On to `CN1CCc2cc(N)cc3c2C1Cc1ccc2c(c1-3)OCO2` (stereo unspecified), for which the TGI in the test on A549 NSCLC was greater than 100 µM; with ACHN renal, greater than 75.5 µM; with BT-549 breast, greater than 100 µM; with CAKI-1 renal, greater than 100 µM; in the test on COLO 205 colon it was greater than 86.9 µM; with EKVX NSCLC, greater than 100 µM. The TGI is greater than 75.7 µM in the test on HL-60(TB) leukemia; greater than 100 µM in the test on HT29 colon; greater than 100 µM with KM12 colon; 37.2 µM in the test on LOX IMVI melanoma; 58.6 µM in the test on MALME-3M melanoma; greater than 100 µM with MDA-N. In addition, the TGI in the test with OVCAR-5 ovarian is greater than 77.7 µM; with PC-3 prostate, greater than 100 µM; in the test on SF-539 CNS, greater than 95 µM; in the test with SK-OV-3 ovarian, greater than 100 µM; with SNB-19 CNS, greater than 100 µM; in the test with SR leukemia it was greater than 39.6 µM.

Regarding `O=C(O)c1ccc(NNC(=O)c2cccc3c(=O)c4ccccc4[nH]c23)cc1`, the TGI with A549 NSCLC, in the test on ACHN renal, in the test on BT-549 breast, with CAKI-1 renal, with COLO 205 colon and with EKVX NSCLC was greater than 100 µM in each case. Moreover, the TGI in the test on HL-60(TB) leukemia, in the test with HT29 colon, in the test with KM12 colon, in the test on LOX IMVI melanoma, with MALME-3M melanoma and in the test on MDA-N was greater than 100 µM each time. For the same molecule, the TGI in the test with OVCAR-5 ovarian, in the test on PC-3 prostate, in the test on SF-539 CNS, with SK-OV-3 ovarian, in the test on SNB-19 CNS and in the test on SR leukemia was greater than 100 µM each time.

Turning to `CC1=CC(=O)/C(=C/n2c(=S)[nH]c3ccc([N+](=O)[O-])cc32)C(=O)O1`, the TGI in the test with A549 NSCLC is greater than 100 µM; in the test on ACHN renal, greater than 100 µM; in the test on BT-549 breast it was greater than 100 µM; in the test with COLO 205 colon it was greater than 100 µM; in the test with EKVX NSCLC, greater than 100 µM; in the test with HL-60(TB) leukemia, 4.93 µM. The TGI in the test on HT29 colon, with KM12 colon, with LOX IMVI melanoma, in the test with MDA-N, in the test with OVCAR-5 ovarian and with PC-3 prostate was greater than 100 µM throughout. For the same molecule, the TGI in the test on SF-539 CNS, in the test with SK-OV-3 ovarian, in the test with SNB-19 CNS and in the test with SR leukemia was greater than 100 µM throughout.

Take `COc1cc2c(cc1OC)C(=O)/C(=C/c1ccc([N+](=O)[O-])cc1)CC2`: the TGI with A549 NSCLC, with ACHN renal, in the test with BT-549 breast, with CAKI-1 renal, with COLO 205 colon and in the test with EKVX NSCLC was greater than 10 µM throughout. The TGI with HL-60(TB) leukemia, with HT29 colon, in the test with KM12 colon, with LOX IMVI melanoma, in the test on MALME-3M melanoma and with MDA-N was greater than 10 µM throughout. Besides, the TGI in the test on OVCAR-5 ovarian, in the test on PC-3 prostate, in the test with SF-539 CNS, in the test on SK-OV-3 ovarian, in the test with SNB-19 CNS and in the test on SR leukemia was greater than 10 µM in each case.

As for `N#CC1(C#N)C(c2ccccc2)C=CC(c2ccc([N+](=O)[O-])cc2)C1(C#N)C#N` (stereo unspecified), the TGI with A549 NSCLC worked out at 32 µM; in the test with ACHN renal, 9.54 µM; in the test on BT-549 breast, 24.3 µM; with CAKI-1 renal, 13.1 µM; in the test on COLO 205 colon, 3.13 µM; with EKVX NSCLC, 28.6 µM. Besides, the TGI in the test on HL-60(TB) leukemia is 0.574 µM; with HT29 colon, greater than 38.5 µM; with KM12 colon it was 52.5 µM; with LOX IMVI melanoma it was 6.87 µM; in the test with MDA-N, 17 µM; in the test on OVCAR-5 ovarian, 31.9 µM. In addition, the TGI in the test with PC-3 prostate is 25 µM; with SF-539 CNS, 8.38 µM; in the test on SK-OV-3 ovarian, 34.5 µM; in the test with SNB-19 CNS it was 34.1 µM; in the test on SR leukemia, greater than 23.6 µM.

Consider `CC[C@H]1C=CCC[C@@]2(C[C@@H]3CC[C@H]4[C@H](C(=O)OCCCCCCCCCCCCCCCC(=O)N(CCCN)C[C@@H](O)CCN)[C@]5(CCC[C@@H](C)O5)NC(=[N+]34)N2)O1`, for which the TGI was found to be 1.74 µM in the test on A549 NSCLC; 1.84 µM in the test with ACHN renal; 4.27 µM in the test with BT-549 breast; 1.87 µM in the test with CAKI-1 renal; 1.3 µM with COLO 205 colon; 2.66 µM in the test on EKVX NSCLC. Also, the TGI was 1.35 µM in the test with HL-60(TB) leukemia; 1.48 µM in the test on HT29 colon; 1.82 µM in the test on KM12 colon; 1.38 µM in the test on LOX IMVI melanoma; 0.806 µM in the test with MALME-3M melanoma; 1.51 µM in the test with MDA-N. The TGI in the test on OVCAR-5 ovarian worked out at 1.78 µM; in the test on PC-3 prostate, 2.06 µM; in the test with SF-539 CNS, 3.32 µM; in the test on SK-OV-3 ovarian it was 3.28 µM; in the test with SNB-19 CNS it was 2.93 µM; in the test on SR leukemia it was 1.23 µM.

For `CC1C(O)Oc2cc3c(cc2C1c1ccccc1O)OCO3` (stereo unspecified), the TGI is greater than 100 µM with A549 NSCLC; greater than 100 µM with ACHN renal; greater than 100 µM in the test with BT-549 breast; greater than 100 µM in the test with CAKI-1 renal; 31 µM in the test on COLO 205 colon; greater than 100 µM with EKVX NSCLC. Besides, the TGI with HL-60(TB) leukemia is 36.7 µM; in the test on HT29 colon it was 66.6 µM; in the test with KM12 colon it was greater than 100 µM; with LOX IMVI melanoma, greater than 100 µM; in the test on MALME-3M melanoma, 83.8 µM; in the test with MDA-N it was greater than 100 µM. Further, the TGI in the test with OVCAR-5 ovarian is greater than 100 µM; in the test on PC-3 prostate, 65.7 µM; in the test on SF-539 CNS it was 79.2 µM; in the test on SK-OV-3 ovarian, greater than 100 µM; with SNB-19 CNS, greater than 100 µM; in the test on SR leukemia it was 25.2 µM.
